Measurements as given in patent US9695155B2, “Herbicidal substituted pyrimidinyloxy benzene compounds” (E. I. DU PONT DE NEMOURS AND COMPANY, priority 2013, dated 2017).

Columns and labels:
sedge, umbrella = assay: Test B flooded paddy test; format: in vivo, Cyperus difformis; conditions: Flood, 250 g ai/ha; 0 to 100 scale where 0 is no effect and 100 is complete control
In short: (§1)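 Flooded to 3 cm at the 2-leaf stage, pots received compound through the paddy water and were kept at that depth under greenhouse conditions. After 13–15 days, effect was rated by eye relative to controls, 0 = none and 100 = complete control.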

giant foxtail [1] = assay: Test A postemergence; format: in vivo, Setaria faberii; conditions: 0 to 100 scale, 0 no effect, 100 complete control
In short: (§2)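 Injury scores run from 0, no effect, to 100, complete control, judged by eye against untreated plants roughly 10 days after treatment. Chemicals carried a surfactant in a non-phytotoxic solvent and went onto loam–sand soil preemergence or onto one- to two-leaf seedlings postemergence.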

pigweed [2] = assay: Test A postemergence; format: in vivo, Amaranthus retroflexus; conditions: 0 to 100 scale, 0 no effect, 100 complete control
In short: as §2

Italian ryegrass [3] = assay: Test A preemergence; format: in vivo, Lolium multiflorum; conditions: for Plant response rating, Ryegrass, Italian: 31 g ai/ha, 0 to 100 scale where 0 is no effect and 100 is complete control, visual, approximately 10 days; for Ryegrass, Italian plant response rating (0 to 100 scale): 125 g ai/ha
In short: as §2

ragweed [4] = assay: Test A postemergence; format: in vivo, Ambrosia elatior; conditions: 0 to 100 scale, 0 no effect, 100 complete control
In short: as §2

corn = assay: Test A postemergence; format: in vivo, Zea mays; conditions: 0 to 100 scale, 0 no effect, 100 complete control
In short: as §2

kochia [5] = assay: Test A preemergence; format: in vivo, Kochia scoparia; conditions: for Plant response rating, Kochia: 31 g ai/ha, 0 to 100 scale where 0 is no effect and 100 is complete control, visual, approximately 10 days; for Kochia plant response rating (0 to 100 scale): 125 g ai/ha
In short: as §2

rice = assay: Test B flooded paddy test; format: in vivo, Oryza sativa; conditions: Flood, 250 g ai/ha; 0 to 100 scale where 0 is no effect and 100 is complete control
In short: as §1

barnyardgrass [6] = assay: Test A preemergence; format: in vivo, Echinochloa crus-galli; conditions: for Plant response rating, Barnyardgrass: 31 g ai/ha, 0 to 100 scale where 0 is no effect and 100 is complete control, visual, approximately 10 days; for Barnyardgrass plant response rating (0 to 100 scale, 0 is no effect, 100 is complete control): 125 g ai/ha
In short: as §2

Heteranthera limosa = assay: Test B flooded paddy test; format: in vivo; conditions: Flood, 250 g ai/ha; 0 to 100 scale where 0 is no effect and 100 is complete control
In short: as §1

galium = assay: Test A postemergence; format: in vivo, Galium aparine; conditions: 0 to 100 scale, 0 no effect, 100 complete control
In short: as §2

ragweed [7] = assay: Test A preemergence; format: in vivo, Ambrosia elatior; conditions: for Plant response rating, Ragweed: 31 g ai/ha, 0 to 100 scale where 0 is no effect and 100 is complete control, visual, approximately 10 days; for Ragweed plant response rating (0 to 100 scale): 125 g ai/ha
In short: as §2

kochia [8] = assay: Test A postemergence; format: in vivo, Kochia scoparia; conditions: 0 to 100 scale, 0 no effect, 100 complete control
In short: as §2

pigweed [9] = assay: Test A preemergence; format: in vivo, Amaranthus retroflexus; conditions: for Plant response rating, Pigweed: 31 g ai/ha, 0 to 100 scale where 0 is no effect and 100 is complete control, visual, approximately 10 days; for Pigweed plant response rating (0 to 100 scale): 125 g ai/ha
In short: as §2

barnyardgrass [10] = assay: Test A postemergence; format: in vivo, Echinochloa crus-galli; conditions: 0 to 100 scale, 0 no effect, 100 complete control
In short: as §2

Italian ryegrass [11] = assay: Test A postemergence; format: in vivo, Lolium multiflorum; conditions: 0 to 100 scale, 0 no effect, 100 complete control
In short: as §2

barnyardgrass [12] = assay: Test B flooded paddy test; format: in vivo, Echinochloa crus-galli; conditions: Flood, 250 g ai/ha; 0 to 100 scale where 0 is no effect and 100 is complete control
In short: as §1

giant foxtail [13] = assay: Test A preemergence; format: in vivo, Setaria faberii; conditions: for Plant response rating, Foxtail, Giant: 31 g ai/ha, 0 to 100 scale where 0 is no effect and 100 is complete control, visual, approximately 10 days; for Foxtail, Giant plant response rating (0 to 100 scale): 125 g ai/ha
In short: as §2

blackgrass = assay: Test A postemergence; format: in vivo, Alopecurus myosuroides; conditions: 0 to 100 scale, 0 no effect, 100 complete control
In short: as §2

wheat = assay: Test A postemergence; format: in vivo, Triticum aestivum; conditions: 0 to 100 scale, 0 no effect, 100 complete control
In short: as §2

Compound | Plant response rating, Sedge, Umbrella (sedge, umbrella) | Plant response rating, Foxtail, Giant (giant foxtail [1]; 31 g ai/ha) | Plant response rating, Foxtail, Giant (giant foxtail [1]; 125 g ai/ha) | Plant response rating, Pigweed (pigweed [2]; 31 g ai/ha) | Plant response rating, Pigweed (pigweed [2]; 125 g ai/ha) | Plant response rating, Ryegrass, Italian (Italian ryegrass [3]) | Ryegrass, Italian plant response rating (0 to 100 scale) (Italian ryegrass [3]) | Plant response rating, Ragweed (ragweed [4]; 31 g ai/ha) | Plant response rating, Ragweed (ragweed [4]; 125 g ai/ha) | Plant response rating, Corn (corn; 31 g ai/ha) | Plant response rating, Corn (corn; 125 g ai/ha) | Plant response rating, Kochia (kochia [5]) | Kochia plant response rating (0 to 100 scale) (kochia [5]) | Plant response rating, Rice (rice) | Plant response rating, Barnyardgrass (barnyardgrass [6]) | Barnyardgrass plant response rating (0 to 100 scale, 0 is no effect, 100 is complete control) (barnyardgrass [6]) | Plant response rating, Ducksalad (Heteranthera limosa) | Plant response rating, Galium (galium; 31 g ai/ha) | Plant response rating, Galium (galium; 125 g ai/ha) | Plant response rating, Ragweed (ragweed [7]) | also measured
FC(F)(F)Sc1cnn(-c2ccccc2Oc2ncc(Br)cn2)c1 [Compound 246] | 0 | 0 | 0 | 20 | 40 | 0 | 0 | 0 | 0 | 0 | 20 | 0 | 0 | 0 | 0 | 30 | 0 | 20 | 70 | 0 | Ragweed plant response rating (0 to 100 scale) (ragweed [7]): 0; Plant response rating, Kochia (kochia [8]; 31 g ai/ha): 20; Plant response rating, Kochia (kochia [8]; 125 g ai/ha): 70; Plant response rating, Pigweed (pigweed [9]): 0; Pigweed plant response rating (0 to 100 scale) (pigweed [9]): 20; Plant response rating, Barnyardgrass (barnyardgrass [10]; 31 g ai/ha): 0; Plant response rating, Barnyardgrass (barnyardgrass [10]; 125 g ai/ha): 0; Plant response rating, Ryegrass, Italian (Italian ryegrass [11]; 31 g ai/ha): 0; Plant response rating, Ryegrass, Italian (Italian ryegrass [11]; 125 g ai/ha): 0; Plant response rating, Barnyardgrass (barnyardgrass [12]): 0; Plant response rating, Foxtail, Giant (giant foxtail [13]): 0; Foxtail, Giant plant response rating (0 to 100 scale) (giant foxtail [13]): 70; Plant response rating, Blackgrass (blackgrass; 31 g ai/ha): 0; Plant response rating, Blackgrass (blackgrass; 125 g ai/ha): 0; Plant response rating, Wheat (wheat; 31 g ai/ha): 0; Plant response rating, Wheat (wheat; 125 g ai/ha): 0
Fc1cnc(Oc2ccccc2-n2cc(SC(F)(F)F)cn2)nc1 [Compound 247] | 50 | 0 | 10 | 10 | 20 | 0 | 0 | 0 | 0 | 0 | 20 | 0 | 60 | 0 | 0 | 70 | 65 | 10 | 30 | 0 | Ragweed plant response rating (0 to 100 scale) (ragweed [7]): 0; Plant response rating, Kochia (kochia [8]; 31 g ai/ha): 20; Plant response rating, Kochia (kochia [8]; 125 g ai/ha): 40; Plant response rating, Pigweed (pigweed [9]): 0; Pigweed plant response rating (0 to 100 scale) (pigweed [9]): 80; Plant response rating, Barnyardgrass (barnyardgrass [10]; 31 g ai/ha): 0; Plant response rating, Barnyardgrass (barnyardgrass [10]; 125 g ai/ha): 20; Plant response rating, Ryegrass, Italian (Italian ryegrass [11]; 31 g ai/ha): 0; Plant response rating, Ryegrass, Italian (Italian ryegrass [11]; 125 g ai/ha): 0; Plant response rating, Barnyardgrass (barnyardgrass [12]): 0; Plant response rating, Foxtail, Giant (giant foxtail [13]): 0; Foxtail, Giant plant response rating (0 to 100 scale) (giant foxtail [13]): 100; Plant response rating, Blackgrass (blackgrass; 31 g ai/ha): 0; Plant response rating, Blackgrass (blackgrass; 125 g ai/ha): 40; Plant response rating, Wheat (wheat; 31 g ai/ha): 0; Plant response rating, Wheat (wheat; 125 g ai/ha): 20
FCc1cccc(Oc2ncc(F)cn2)c1-n1cc(Cl)cn1 [Compound 249] | 60 | 0 | 60 | 60 | 100 | 0 | 30 | 10 | 70 | 0 | 10 | 0 | 40 | 0 | 0 | 0 | 70 | 20 | 30 | 0 | Ragweed plant response rating (0 to 100 scale) (ragweed [7]): 0; Plant response rating, Kochia (kochia [8]; 31 g ai/ha): 20; Plant response rating, Kochia (kochia [8]; 125 g ai/ha): 80; Plant response rating, Pigweed (pigweed [9]): 90; Pigweed plant response rating (0 to 100 scale) (pigweed [9]): 90; Plant response rating, Barnyardgrass (barnyardgrass [10]; 31 g ai/ha): 0; Plant response rating, Barnyardgrass (barnyardgrass [10]; 125 g ai/ha): 60; Plant response rating, Ryegrass, Italian (Italian ryegrass [11]; 31 g ai/ha): 0; Plant response rating, Ryegrass, Italian (Italian ryegrass [11]; 125 g ai/ha): 0; Plant response rating, Barnyardgrass (barnyardgrass [12]): 0; Plant response rating, Foxtail, Giant (giant foxtail [13]): 0; Foxtail, Giant plant response rating (0 to 100 scale) (giant foxtail [13]): 0; Plant response rating, Blackgrass (blackgrass; 31 g ai/ha): 60; Plant response rating, Blackgrass (blackgrass; 125 g ai/ha): 80; Plant response rating, Wheat (wheat; 31 g ai/ha): 0; Plant response rating, Wheat (wheat; 125 g ai/ha): 0
FCc1cccc(Oc2ncc(Br)cn2)c1-n1cc(Cl)cn1 [Compound 251] | 40 | 30 | 60 | 60 | 70 | 0 | 0 | 10 | 20 | 0 | 20 | 10 | 70 | 0 | 30 | 50 | 75 | 20 | 30 | 0 | Ragweed plant response rating (0 to 100 scale) (ragweed [7]): 30; Plant response rating, Kochia (kochia [8]; 31 g ai/ha): 40; Plant response rating, Kochia (kochia [8]; 125 g ai/ha): 60; Plant response rating, Pigweed (pigweed [9]): 70; Pigweed plant response rating (0 to 100 scale) (pigweed [9]): 90; Plant response rating, Barnyardgrass (barnyardgrass [10]; 31 g ai/ha): 10; Plant response rating, Barnyardgrass (barnyardgrass [10]; 125 g ai/ha): 30; Plant response rating, Ryegrass, Italian (Italian ryegrass [11]; 31 g ai/ha): 0; Plant response rating, Ryegrass, Italian (Italian ryegrass [11]; 125 g ai/ha): 10; Plant response rating, Barnyardgrass (barnyardgrass [12]): 0; Plant response rating, Foxtail, Giant (giant foxtail [13]): 50; Foxtail, Giant plant response rating (0 to 100 scale) (giant foxtail [13]): 80; Plant response rating, Blackgrass (blackgrass; 31 g ai/ha): 50; Plant response rating, Blackgrass (blackgrass; 125 g ai/ha): 70; Plant response rating, Wheat (wheat; 31 g ai/ha): 0; Plant response rating, Wheat (wheat; 125 g ai/ha): 0
Cc1cn(-c2c(C#N)cccc2Oc2ncc(Cl)cn2)cn1 [Compound 260] | 0 | 0 | 0 | 50 | 60 | 0 | 0 | 30 | 40 | 0 | 10 | 0 | 0 | 0 | 0 | 0 | 0 | 50 | 60 | 0 | Ragweed plant response rating (0 to 100 scale) (ragweed [7]): 0; Plant response rating, Kochia (kochia [8]; 31 g ai/ha): 50; Plant response rating, Kochia (kochia [8]; 125 g ai/ha): 60; Plant response rating, Pigweed (pigweed [9]): 0; Pigweed plant response rating (0 to 100 scale) (pigweed [9]): 30; Plant response rating, Barnyardgrass (barnyardgrass [10]; 31 g ai/ha): 0; Plant response rating, Barnyardgrass (barnyardgrass [10]; 125 g ai/ha): 0; Plant response rating, Ryegrass, Italian (Italian ryegrass [11]; 31 g ai/ha): 0; Plant response rating, Ryegrass, Italian (Italian ryegrass [11]; 125 g ai/ha): 0; Plant response rating, Barnyardgrass (barnyardgrass [12]): 0; Plant response rating, Foxtail, Giant (giant foxtail [13]): 0; Foxtail, Giant plant response rating (0 to 100 scale) (giant foxtail [13]): 0; Plant response rating, Blackgrass (blackgrass; 31 g ai/ha): 0; Plant response rating, Blackgrass (blackgrass; 125 g ai/ha): 0; Plant response rating, Wheat (wheat; 31 g ai/ha): 0; Plant response rating, Wheat (wheat; 125 g ai/ha): 0
